In patent publication US11623919B2, “Heterocyclic P2X7 antagonists” (AXXAM S.P.A., priority 2017, dated 2023):

Key:
Experiment in all cases: Screen Quest Fluo-8 No Wash Calcium Assay (Bz-ATP evoked Ca2+ influx, FLIPR)
Assay type in all cases: cell-based
P2X7 receptor [1] = biological target: T1, P2X7 receptor (Rattus norvegicus, UniProt Q64663); details: rP2X7; HEK-293 cells stably transfected with P2X7 receptor, Bz-ATP at EC80, Fluo-8 NW; potency ranges A-D
T1 construct: rP2X7 (IC50; nM); other: rP2X7; HEK-293 cells stably transfected with P2X7 receptor, Bz-ATP at EC80, Fluo-8 NW; potency
T1 sequence (Q64663 1-595): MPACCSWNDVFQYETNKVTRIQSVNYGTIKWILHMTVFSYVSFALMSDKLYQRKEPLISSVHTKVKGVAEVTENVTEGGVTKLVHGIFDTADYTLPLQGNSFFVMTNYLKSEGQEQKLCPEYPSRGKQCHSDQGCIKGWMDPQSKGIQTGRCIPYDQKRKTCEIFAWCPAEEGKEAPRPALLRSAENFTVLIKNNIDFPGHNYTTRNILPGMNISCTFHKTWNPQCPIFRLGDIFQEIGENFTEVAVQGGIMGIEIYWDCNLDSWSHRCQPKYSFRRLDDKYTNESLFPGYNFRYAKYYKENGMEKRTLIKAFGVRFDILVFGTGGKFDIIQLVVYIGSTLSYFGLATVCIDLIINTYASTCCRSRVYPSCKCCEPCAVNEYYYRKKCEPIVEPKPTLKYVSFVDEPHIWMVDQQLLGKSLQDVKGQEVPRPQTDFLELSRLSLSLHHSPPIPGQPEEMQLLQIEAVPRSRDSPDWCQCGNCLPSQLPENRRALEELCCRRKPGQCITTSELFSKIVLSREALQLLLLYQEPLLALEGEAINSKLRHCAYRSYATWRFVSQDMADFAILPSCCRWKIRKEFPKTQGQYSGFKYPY
Procedure, shortened: (§1)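 HEK-293 cells stably expressing P2X7 were loaded with Fluo-8 NW for 1 h at RT, then given compound, and 5 min later Bz-ATP at EC80. Fluorescence was read by FLIPR in low divalent cation buffer (0.3 mM Ca2+, 0 mM Mg2+). IC50 came from percent inhibition relative to reference antagonist A438079.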

P2X7 receptor [2] = biological target: T2, P2X7 receptor (Mus musculus, UniProt Q9Z1M0); details: mP2X7; HEK-293 cells stably transfected with P2X7 receptor, Bz-ATP at EC80, Fluo-8 NW; potency ranges A-D
T2 construct: mP2X7 (IC50; nM); other: mP2X7; HEK-293 cells stably transfected with P2X7 receptor, Bz-ATP at EC80, Fluo-8 NW; potency
T2 sequence (Q9Z1M0 1-595): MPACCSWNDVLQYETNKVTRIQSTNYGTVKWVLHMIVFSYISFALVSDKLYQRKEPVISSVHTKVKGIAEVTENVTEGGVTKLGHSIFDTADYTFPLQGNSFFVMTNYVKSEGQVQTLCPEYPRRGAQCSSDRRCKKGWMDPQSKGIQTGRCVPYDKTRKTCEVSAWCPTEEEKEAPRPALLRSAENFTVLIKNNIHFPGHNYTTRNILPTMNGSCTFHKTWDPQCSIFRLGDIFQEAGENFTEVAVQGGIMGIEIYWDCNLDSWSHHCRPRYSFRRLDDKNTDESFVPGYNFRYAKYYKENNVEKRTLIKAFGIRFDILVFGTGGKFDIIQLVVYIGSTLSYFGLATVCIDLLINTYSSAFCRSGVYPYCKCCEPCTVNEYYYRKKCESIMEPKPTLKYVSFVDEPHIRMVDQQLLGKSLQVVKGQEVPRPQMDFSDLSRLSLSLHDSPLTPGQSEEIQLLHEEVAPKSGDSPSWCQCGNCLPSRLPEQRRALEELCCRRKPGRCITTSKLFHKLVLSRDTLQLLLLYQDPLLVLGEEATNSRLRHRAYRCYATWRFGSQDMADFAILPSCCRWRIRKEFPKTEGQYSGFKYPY
Procedure, shortened: as §1

P2X7 receptor [3] = biological target: T3, P2X7 receptor (Homo sapiens, UniProt Q99572); design: hP2X7 (IC50; nM); other: hP2X7; HEK-293 cells stably transfected with P2X7 receptor, Bz-ATP at EC80, Fluo-8 NW; potency; details: hP2X7; HEK-293 cells stably transfected with P2X7 receptor, Bz-ATP at EC80, Fluo-8 NW; potency ranges A-D
T3 sequence (Q99572 1-595): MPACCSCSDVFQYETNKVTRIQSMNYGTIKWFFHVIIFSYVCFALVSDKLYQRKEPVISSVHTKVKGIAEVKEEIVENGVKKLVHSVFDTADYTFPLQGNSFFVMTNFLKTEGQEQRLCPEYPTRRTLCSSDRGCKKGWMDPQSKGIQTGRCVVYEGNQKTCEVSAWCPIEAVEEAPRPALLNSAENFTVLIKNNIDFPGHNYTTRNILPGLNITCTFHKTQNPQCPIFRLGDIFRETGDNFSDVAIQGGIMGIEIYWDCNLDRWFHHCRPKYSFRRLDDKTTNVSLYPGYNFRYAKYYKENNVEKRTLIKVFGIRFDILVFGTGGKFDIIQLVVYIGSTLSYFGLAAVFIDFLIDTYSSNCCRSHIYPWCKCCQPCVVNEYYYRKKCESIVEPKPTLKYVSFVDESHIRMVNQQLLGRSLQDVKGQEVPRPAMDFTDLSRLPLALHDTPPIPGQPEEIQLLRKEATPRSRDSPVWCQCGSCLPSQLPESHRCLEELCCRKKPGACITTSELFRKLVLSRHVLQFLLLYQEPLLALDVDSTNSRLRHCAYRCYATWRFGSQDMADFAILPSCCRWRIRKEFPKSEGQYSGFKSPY
Procedure, shortened: as §1

IC50 (P2X7 receptor [1])	IC50 (P2X7 receptor [2])	IC50 (P2X7 receptor [3])	SMILES
200 to 1000 nM	200 to 1000 nM	1000 to 10000 nM	O=c1onc(CC2CCC(F)(F)CC2)n1Cc1ccc(C(F)(F)F)o1 [Example 168, 3-[(4,4-difluorocyclohexyl)methyl]-4-{[5-(trifluoromethyl)furan-2-yl]methyl}-4,5-dihydro-1,2,4-oxadiazol-5-one]
< 200 nM	200 to 1000 nM	< 200 nM	O=c1onc(Cc2c(F)cccc2Cl)n1CC1CC2C(C1)C2(F)F (stereo not drawn) [Example 173, 3-[(2-chloro-6-fluorophenyl)methyl]-4-({6,6-difluorobicyclo[3.1.0]-hexan-3-yl}methyl)-4,5-dihydro-1,2,4-oxadiazol-5-one]
1000 to 10000 nM	> 10000 nM	1000 to 10000 nM	O=c1onc(CC2CCC(F)(F)CC2)n1Cc1ncco1 [Example 194, 3-[(4,4-difluorocyclohexyl)methyl]-4-[(1,3-oxazol-2-yl)methyl]-1,2,4-oxadiazol-5(4H)-one]
1000 to 10000 nM	1000 to 10000 nM	200 to 1000 nM	Cc1ncccc1Cc1noc(=O)n1CC1CCC(F)(F)CC1 [Example 219, 4-[(4,4-difluorocyclohexyl)methyl]-3-[(2-methylpyridin-3-yl)methyl]-4,5-dihydro-1,2,4-oxadiazol-5-one]
1000 to 10000 nM	> 10000 nM	1000 to 10000 nM	O=c1onc(Cc2ccc(F)cc2F)n1Cc1ccc(F)cc1 [Example 80, 3-[(2,4-difluorophenyl)methyl]-4-[(4-fluorophenyl)methyl]-4,5-dihydro-1,2,4-oxadiazol-5-one]
1000 to 10000 nM	> 10000 nM	> 10000 nM	O=c1onc(CN2CCCC(F)(F)C2)n1Cc1ccc(F)cc1 [Example 225, 3-[(3,3-difluoropiperidin-1-yl)methyl]-4-[(4-fluorophenyl)methyl]-4,5-dihydro-1,2,4-oxadiazol-5-one]
1000 to 10000 nM	1000 to 10000 nM	200 to 1000 nM	O=c1onc(Cc2ccc(F)cc2Cl)n1Cc1c(F)cccc1Cl [Example 14, 3-[(2-chloro-4-fluorophenyl)methyl]-4-[(2-chloro-6-fluorophenyl)methyl]-4,5-dihydro-1,2,4-oxadiazol-5-one]
1000 to 10000 nM	1000 to 10000 nM	> 10000 nM	O=c1onc(CN2CCC(F)(F)CC2)n1CC1CCCCC1 [Example 222, 4-(cyclohexylmethyl)-3-[(4,4-difluoropiperidin-1-yl)methyl]-4,5-dihydro-1,2,4-oxadiazol-5-one]
> 10000 nM	> 10000 nM	1000 to 10000 nM	Cc1nn(C)c(C)c1Cc1noc(=O)n1Cc1ccc(F)cc1 [Example 212, 4-[(4-fluorophenyl)methyl]-3-[(trimethyl-1H-pyrazol-4-yl)methyl]-4,5-dihydro-1,2,4-oxadiazol-5-one]
1000 to 10000 nM	1000 to 10000 nM	1000 to 10000 nM	Cc1ccccc1Cn1c(Cc2c(F)cccc2Cl)noc1=O [Example 27, 3-[(2-chloro-6-fluorophenyl)methyl]-4-[(2-methylphenyl)methyl]-4,5-dihydro-1,2,4-oxadiazol-5-one]
1000 to 10000 nM	> 10000 nM	1000 to 10000 nM	CCC#CCn1c(Cc2c(F)cccc2Cl)noc1=O [Example 90, 3-[(2-chloro-6-fluorophenyl)methyl]-4-(pent-2-yn-1-yl)-4,5-dihydro-1,2,4-oxadiazol-5-one]
1000 to 10000 nM	1000 to 10000 nM	1000 to 10000 nM	CC(c1ccc(F)cc1)n1c(CC2CCC(F)(F)CC2)noc1=O (stereo not drawn) [Example 164, 3-[(4,4-difluorocyclohexyl)methyl]-4-[1-(4-fluorophenyl)ethyl]-4,5-dihydro-1,2,4-oxadiazol-5-one]
< 200 nM	< 200 nM	< 200 nM	O=c1onc(Cc2c(F)cccc2Cl)n1CC1CCC(C(F)(F)F)CC1 (stereo not drawn) [Example 184, 3-[(2-chloro-6-fluorophenyl)methyl]-4-{[4-(trifluoromethyl)cyclohexyl]methyl}-1,2,4-oxadiazol-5(4H)-one]
1000 to 10000 nM	1000 to 10000 nM	1000 to 10000 nM	O=c1onc(Cc2c(F)cccc2Cl)n1Cc1cccc(C(F)(F)F)c1Cl [Example 58, 4-{[2-chloro-3-(trifluoromethyl)phenyl]methyl}-3-[(2-chloro-6-fluorophenyl)methyl]-4,5-dihydro-1,2,4-oxadiazol-5-one]
< 200 nM	< 200 nM	< 200 nM	O=c1onc(CN2CCOc3ccccc32)n1CC1CCCCC1 [Example 230, 4-(cyclohexylmethyl)-3-(3,4-dihydro-2H-1,4-benzoxazin-4-ylmethyl)-4,5-dihydro-1,2,4-oxadiazol-5-one]
200 to 1000 nM	1000 to 10000 nM	200 to 1000 nM	O=c1onc(CCc2c(F)cccc2Cl)n1Cc1c(F)cccc1Cl [Example 144, 4-(2-chloro-6-fluorobenzyl)-3-[2-(2-chloro-6-fluorophenyl)ethyl]-1,2,4-oxadiazol-5(4H)-one]
> 10000 nM	> 10000 nM	1000 to 10000 nM	Cc1noc(C)c1Cn1c(Cc2c(F)cccc2Cl)noc1=O [Example 36, 3-[(2-chloro-6-fluorophenyl)methyl]-4-[(dimethyl-1,2-oxazol-4-yl)methyl]-4,5-dihydro-1,2,4-oxadiazol-5-one]
200 to 1000 nM	1000 to 10000 nM	1000 to 10000 nM	O=c1onc(Cc2c(F)cccc2Cl)n1CC1CCOCC1 [Example 93, 3-[(2-chloro-6-fluorophenyl)methyl]-4-(oxan-4-ylmethyl)-4,5-dihydro-1,2,4-oxadiazol-5-one]
> 10000 nM	> 10000 nM	> 10000 nM	O=c1onc(CN2CCC(F)(F)CC2)n1CC1CCC(F)(F)CC1 [Example 223, 4-[(4,4-difluorocyclohexyl)methyl]-3-[(4,4-difluoropiperidin-1-yl)methyl]-4,5-dihydro-1,2,4-oxadiazol-5-one]
> 10000 nM	> 10000 nM	1000 to 10000 nM	O=c1onc(Cc2c(F)cccc2Cl)n1CCCN1CCC(F)(F)CC1 [Example 182, 3-[(2-chloro-6-fluorophenyl)methyl]-4-[3-(4,4-difluoropiperidin-1-yl)propyl]-4,5-dihydro-1,2,4-oxadiazol-5-one]
200 to 1000 nM	1000 to 10000 nM	200 to 1000 nM	O=c1onc(Cc2c(F)cccc2Cl)n1CC1CC=CC1 [Example 183, 3-[(2-chloro-6-fluorophenyl)methyl]-4-(cyclopent-3-en-1-ylmethyl)-4,5-dihydro-1,2,4-oxadiazol-5-one]
